The numbers were not newly measured in patent US20100173015A1, “COMPOSITIONS AND METHODS FOR THE ABSORPTION, CHELATION, AND ELIMINATION OF TRACE ELEMENTS” (priority 2009, published 2010), which cites them from elsewhere.

Molecules are shown by their SMILES. Bounds are passed on as bounds.

For series [1], the system named is human lung embryonic fibroblasts (TIG-1). The settings on record: TIG-1 cells.
For a further series, the system named is GSTM1. The following applies: microarray, in the presence of taxifolin.
The subject of a further series is NQO1. The following applies: microarray, in the presence of taxifolin.
Series [2] concerns umbilical vein endothelial (HUVE) cells.
The next series relates to CYP2E1. The following applies: microarray, in the presence of taxifolin.

In the case of `O=C1c2c(O)cc(O)cc2O[C@H](c2ccc(O)c(O)c2)[C@H]1O` [Dihydroquercetin], the 50% lethal concentration in series [1] is > 300 µmol; in series [2], > 200 µmol. The “expression of phase II detoxification enzyme GSTM1” value in the series on GSTM1 was “upregulated”. The “expression of phase II detoxification enzyme NQO1” value with NQO1 was “upregulated”. The “expression of phase I detoxification enzyme CYP2E1” value in the series with CYP2E1 is “down regulated”.
